Assay results taken from patent US5767268A, “Sulfuric acid esters of amino sugars” (Hoffmann-La Roche Inc., priority 1995, dated 1998).
Structures can show the parent of a compound that is named as a salt. Where two headings read alike, the source gives them in different places.

How the values were obtained:
[1] = biological target: T1, Factor Xa (Bos taurus, UniProt P00743); experiment: Blood coagulation inhibition: inhibition of Factor Xa in the Chromogen Substrate Test; format: biochemical
T1 sequence (P00743 41-180 limits assumed): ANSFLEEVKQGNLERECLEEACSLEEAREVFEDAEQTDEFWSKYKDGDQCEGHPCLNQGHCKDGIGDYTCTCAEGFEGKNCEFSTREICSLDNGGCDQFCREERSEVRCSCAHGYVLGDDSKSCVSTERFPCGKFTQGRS
Method: (§1) Inhibition of thrombin or Factor Xa in the Chromogen Substrate Test (Teien et al., Thrombosis Research 10, 399-410 (1977)): The determination was effected in a Cobas-Bio centrifugal automatic spectrophotometer. The buffer solution used consisted of 50 mM Tris buffer, 180 mM NaCl, 7.5 mM EDTA Na2, 1% PEG 6000 and 0.02% Tween 80, pH 8.4. The test solution consisted of 50 μl of buffer, 30 μl of antithombin III (1U/ml, Kabi Diagnostica) and 20 μl of plasma which contained various concentrations of test compounds. 30 μl of sample solution and 20 μl of water with 180 μl of thrombin (1U/ml, Thrombin Reagent Roche Basle) were added to the test cuvette in the automatic analyzer. After incubation at 37° C. for 240 seconds, 60 μl of S-2238 (H-D-Phe-Pip-Arg-NH.pNA, Kabi Diagnostica, Mondal, Sweden, 0.75 mM in water) and 20 μl of water were added. The liberation of pNA (p-nitro-aniline) was followed during 60 seconds at 405 nm in 10 second intervals in comparison to water as the blank.
The inhibition of Factor Xa was measured in the same manner using a solution of Factor Xa (2.8 nkat/ml and 2 mM S-2222 (Bz-CO-Ile-Glu-Arg-NH.pNA, Kabi Diagnostica) in water in place of thrombin and, respectively, S-2238.

[2] = system: neointima in rat carotids; experiment: In vivo assay of the antiproliferative activity in damaged rat carotids (neointima); set-up: species or system rat (male Wistar Kyoto); conditions: 1 mg/kg/h i.v., p<0.001 t-test
Method: In vivo assay for the determination of the antiproliferative activity of the compounds in accordance with the invention in damaged rat carotids
After narcosis, the left carotids of male Wistar Kyoto rats (300-400 g) were damaged with a 2 F embolectomy catheter by drawing the catheter in the pumped-up state three times through the vessel. After wound healing, the animals were kept in pairs with standard feed and water ad libidum.
The compounds were administered in concentrations of 0.3-1 mg/kg/h i.v. For this purpose, during the narcosis an osmotic minipump was implanted into the animals under the dorsal skin and was attached to the jugular vein. Thus, the compounds could be administered constantly during the entire test period of 14 days.
After 14 days proliferative tissue (neointima) had formed, the size of which could be determined morphometrically on histological cross-sections.For this purpose, the rats were sacrificed and perfusion-fixed with glutaraldehyde.

[3] = system: rat smooth muscle cells; experiment: Antiproliferative activity (ri, relative to heparin) in rat smooth muscle cells; format: cell-based; set-up: key: growth inhibition relative to heparin at 100 μg/ml, same experiment; conditions: 100 μg/ml, 48 h, relative to heparin at 100 μg/ml in the same experiment
Method: Antiproliferative Activity
The antiproliferative activity of a substance is expressed as the ri value which is a comparative value to the corresponding activity of heparin and which was determined in cell cultures as follows: rat smooth muscle cells were applied to cell culture plates in a density of 8×10^3 cells/well (medium: DMEM with 10% FCS. Cultivation at 37° C. and 5% CO2). After 4 hours, the number of adhered cells was determined and the substances to be tested (100 μg/ml, dissolved in H2 O) were added. […] Subsequently, the cells were incubated for 48 h. and thereafter the cell count was determined once more.
The inhibition i of the cell growth, that is, the reduction in the growth rate of the cells in percent compared to the control, was calculated from these values. [formula] the growth rate μbeing calculated as [formula] in which Z is the number of cells and d is the time in days.
Finally, ri --the relative inhibitory activity--which expresses the activity of a substance (at 100 μg/ml) in comparison to the activity of heparin in the same concentration in the same experiment, was calculated: [formula] Blood Coagulation Inhibition

[4] = biological target: T2, thrombin (Homo sapiens, UniProt P00734); format: biochemical
T2 construct: purchased Roche Basle (Thrombin Reagent)
Method: as §1

[5] = with antithrombin III and plasma, S-2222 substrate; read-out: Anticoagulative Activity IC50 Factor Xa
[6] = with antithrombin III and plasma, S-2238 substrate, 37° C., pH 8.4; read-out: Anticoagulative Activity IC50 Thrombin
[7] = with antithrombin III and plasma, S-2222 substrate
[8] = with antithrombin III and plasma, S-2238 substrate, 37° C., pH 8.4

Row | IC50 [1, 5] | IC50 [4, 6] | Molecule | cross-sectional area of the neointima in rat carotids 14 days after balloonisation [2] | Antiproliferative Activity ri (relative inhibitory activity versus heparin) [3] | IC50 ([1]; read-out: Anticoagulative Activity IC50 Factor Xa; with antithrombin III and plasma, S-2222 substrate) | IC50 ([4]; read-out: Anticoagulative Activity IC50 Thrombin; with antithrombin III and plasma, S-2238 substrate, 37° C., pH 8.4) | Anticoagulative Activity IC50 Factor Xa [1, 7] | Anticoagulative Activity IC50 Thrombin [4, 8]
1 | > 450 µM | > 450 µM | O=C(N[C@H]1[C@@H](OCc2ccccc2)O[C@H](CNC(=O)[C@H](OS(=O)(=O)O)[C@@H](OS(=O)(=O)O)[C@H](OS(=O)(=O)O)[C@@H](COS(=O)(=O)O)OS(=O)(=O)O)[C@@H](OS(=O)(=O)O)[C@@H]1OS(=O)(=O)O)c1ccc(-c2ccc(C(=O)N[C@H]3[C@@H](OCc4ccccc4)O[C@H](CNC(=O)[C@H](OS(=O)(=O)O)[C@@H](OS(=O)(=O)O)[C@H](OS(=O)(=O)O)[C@@H](COS(=O)(=O)O)OS(=O)(=O)O)[C@@H](OS(=O)(=O)O)[C@@H]3OS(=O)(=O)O)cc2)cc1 [Example 14, Biphenyl-4,4'-dicarboxylic acid bis-[[benzyl 2,6-didesoxy-3,4-di-O-sulfo-6-(2,3,4,5,6-penta-O-sulfo-D-gluconoylamino)-a-D-glucopyranosid-2-yl]-amide] tetradecasodium salt] | significantly reduced | 1.2 |  |  |  | 
2 |  |  | O=C(N[C@H]1[C@@H](OCc2ccccc2)O[C@H](CNC(=O)[C@H](OS(=O)(=O)O)[C@@H](OS(=O)(=O)O)[C@H](OS(=O)(=O)O)[C@@H](COS(=O)(=O)O)OS(=O)(=O)O)[C@@H](OS(=O)(=O)O)[C@@H]1OS(=O)(=O)O)c1cccc(C(=O)N[C@H]2[C@@H](OCc3ccccc3)O[C@H](CNC(=O)[C@H](OS(=O)(=O)O)[C@@H](OS(=O)(=O)O)[C@H](OS(=O)(=O)O)[C@@H](COS(=O)(=O)O)OS(=O)(=O)O)[C@@H](OS(=O)(=O)O)[C@@H]2OS(=O)(=O)O)c1 [Example 24, Isophthalic acid bis-[[benzyl 2,6-didesoxy-6-(2,3,4,5,6-penta-O-sulfo-D-gluconoylamino)-3,4-di-O-sulfo-a-D-gluco-pyranosid-2-yl]-amide] tetradecasodium salt] | significantly reduced |  |  |  |  | 
3 | > 401 µM | > 401 µM | CC(=O)Nc1cc(C(=O)N[C@H]2[C@@H](OCc3ccccc3)O[C@H](CNC(=O)c3cccc(C(=O)NC[C@H]4O[C@H](OCc5ccccc5)[C@H](NC(=O)c5ccc(N(C)C[C@H](OS(=O)(=O)O)[C@@H](OS(=O)(=O)O)[C@H](OS(=O)(=O)O)[C@@H](COS(=O)(=O)O)OS(=O)(=O)O)c(NC(C)=O)c5)[C@@H](OS(=O)(=O)O)[C@@H]4OS(=O)(=O)O)c3)[C@@H](OS(=O)(=O)O)[C@@H]2OS(=O)(=O)O)ccc1N(C)C[C@H](OS(=O)(=O)O)[C@@H](OS(=O)(=O)O)[C@H](OS(=O)(=O)O)[C@@H](COS(=O)(=O)O)OS(=O)(=O)O [Example 37, Isophthalic acid bis-[[benzyl 2-[3-acetylamino-4-[methyl-(2,3,4,5,6-penta-O-sulfo-D-glucit-1-yl)-amino]-benzoylamino]-2,6-didesoxy-3,4-di-O-sulfo-a-D-glucopyranosid-6-yl]-amide] tetradecasodium salt] |  | 1.9 |  |  |  | 
4 |  |  | CC(=O)Nc1cc(C(=O)N[C@H]2[C@@H](OCc3ccccc3)O[C@H](CNC(=O)c3cccc(C(=O)NC[C@H]4O[C@H](OCc5ccccc5)[C@H](NC(=O)c5ccc(N(CCOS(=O)(=O)O)C[C@H](OS(=O)(=O)O)[C@@H](OS(=O)(=O)O)[C@H](OS(=O)(=O)O)[C@@H](COS(=O)(=O)O)OS(=O)(=O)O)c(NC(C)=O)c5)[C@@H](OS(=O)(=O)O)[C@@H]4OS(=O)(=O)O)c3)[C@@H](OS(=O)(=O)O)[C@@H]2OS(=O)(=O)O)ccc1N(CCOS(=O)(=O)O)C[C@H](OS(=O)(=O)O)[C@@H](OS(=O)(=O)O)[C@H](OS(=O)(=O)O)[C@@H](COS(=O)(=O)O)OS(=O)(=O)O [Example 38, Isophthalic acid bis-[[benzyl 2-[3-acetylamino-4-[(2,3,4,5,6-penta-O-sulfo-D-glucit-1-yl)-(2-sulfonyloxy-ethyl)-amino]-benzoylamino]-2,6-didesoxy-3,4-di-O-sulfo-a-D-glucopyranosid-6-yl]-amide] hexadecasodium salt] |  | 1.8 | > 368 µM | > 368 µM |  | 
5 |  |  | Biphenyl-4,4'-dicarboxylic acid bis-[[(Z)-benzyl 2,6-didesoxy-3,4-di-O-sulfo-6-(3-desoxy-2,4,5,6-tetra-0-sulfo-D-erythro-hex-2-enonoylamino)-a-D-glucopyranosid-2-yl]-amide] dodecasodium salt [Example 15] |  | 1.8 |  |  | > 1000 mg/L | > 1000 mg/L
6 |  |  | Heparin [reference compound] |  | 1.0 |  |  | 2.7 mg/L | 1.9 mg/L
